Measurements from ChEMBL document CHEMBL1142199, “Caenorhabditis elegans as a model to determine fitness of antibiotic-resistant Salmonella enterica serovar typhimurium” (2007).
Values after ≈ are worked out from the molar mass of the structure shown. Each block holds one molecule with its values, some of them ahead of it.

Tests used:
Format in all cases: functional, Salmonella enterica subsp. enterica serovar Typhimurium
Salmonella typhimurium [1] = experiment: Antimicrobial activity against Salmonella enterica serovar Typhimurium DA8325 in Caenorhabditis elegans
Salmonella typhimurium [2] = experiment: Antimicrobial activity against Salmonella enterica serovar Typhimurium DA8340 in Caenorhabditis elegans
Salmonella typhimurium [3] = experiment: Antimicrobial activity against Salmonella enterica serovar Typhimurium DA8326 in Caenorhabditis elegans
Salmonella typhimurium [4] = experiment: Antimicrobial activity against Salmonella enterica serovar Typhimurium JB393 in Caenorhabditis elegans
Salmonella typhimurium [5] = experiment: Antimicrobial activity against Salmonella enterica serovar Typhimurium JB1855 in Caenorhabditis elegans
Salmonella typhimurium [6] = experiment: Antimicrobial activity against Salmonella enterica serovar Typhimurium JB1850 in Caenorhabditis elegans
Salmonella typhimurium [7] = experiment: Antimicrobial activity against Salmonella enterica serovar Typhimurium SMP973 in Caenorhabditis elegans
Salmonella typhimurium [8] = experiment: Antimicrobial activity against Salmonella enterica serovar Typhimurium SMP972 in Caenorhabditis elegans
Salmonella typhimurium [9] = experiment: Antimicrobial activity against Salmonella enterica serovar Typhimurium SMP816 in Caenorhabditis elegans
Salmonella typhimurium [10] = experiment: Antimicrobial activity against Salmonella enterica serovar Typhimurium SMP807 in Caenorhabditis elegans
Salmonella typhimurium [11] = experiment: Antimicrobial activity against Salmonella enterica serovar Typhimurium JB127 in Caenorhabditis elegans

MIC (Salmonella typhimurium [1]): > 1020 µg/mL
MIC (Salmonella typhimurium [2]): > 1020 µg/mL
MIC (Salmonella typhimurium [3]): > 1020 µg/mL
SMILES: CCCCC[C@H](CC(=O)NO)C(=O)N[C@H](C(=O)N1CCC[C@H]1CO)C(C)C [ACTINONIN]

MIC (Salmonella typhimurium [4]): 2400 µg/mL (≈ 4640 µM)
SMILES: CC(=O)O[C@H]1C[C@@]2(C)[C@@H](C[C@@H](O)[C@H]3[C@@]4(C)CC[C@@H](O)[C@@H](C)[C@@H]4CC[C@@]32C)/C1=C(\CCC=C(C)C)C(=O)O [FUSIDIC ACID]

MIC (Salmonella typhimurium [5]): > 1020 µg/mL
MIC (Salmonella typhimurium [6]): > 1020 µg/mL
SMILES: C/C(=C\C(=O)OCCCCCCCCC(=O)O)C[C@@H]1OC[C@H](C[C@@H]2O[C@H]2[C@@H](C)[C@H](C)O)[C@@H](O)[C@H]1O [MUPIROCIN]

SMILES: CCn1cc(C(=O)O)c(=O)c2ccc(C)nc21 [NALIDIXIC ACID]
MIC (Salmonella typhimurium [7]): > 256 µg/mL
MIC (Salmonella typhimurium [8]): 64 µg/mL (≈ 276 µM)

MIC (Salmonella typhimurium [9]): > 256 µg/mL
MIC (Salmonella typhimurium [10]): > 256 µg/mL
SMILES: CO[C@H]1/C=C/O[C@@]2(C)Oc3c(C)c(O)c4c(O)c(c(/C=N/N5CCN(C)CC5)c(O)c4c3C2=O)NC(=O)/C(C)=C\C=C\[C@H](C)[C@H](O)[C@@H](C)[C@@H](O)[C@@H](C)[C@H](OC(C)=O)[C@@H]1C [RIFAMPIN]

MIC (Salmonella typhimurium [11]): > 1020 µg/mL
SMILES: CN[C@@H]1[C@H](O[C@H]2[C@H](O[C@H]3[C@H](O)[C@@H](O)[C@H](N=C(N)N)[C@@H](O)[C@@H]3N=C(N)N)O[C@@H](C)[C@]2(O)C=O)O[C@@H](CO)[C@H](O)[C@H]1O [STREPTOMYCIN]
